For one test, the target named is T1, ATP synthase subunit c (Mycobacterium tuberculosis, UniProt P9WPS1).
T1 construct: made in house
Format: binding.

For another test, the target named is ATP synthase holoenzyme (Bacillus sp., UniProt P00845+P09218). Format: binding, Bacillus PS3.
In test [1] the test system is ATP synthase with resistance mutation D32V in subunit c. Format: biochemical, Mycobacterium smegmatis.
The target of test [2] is mycobacterial ATP synthase (Mycolicibacterium smegmatis, UniProt A0R205+A0R206).

T1 sequence (P9WPS1 whole entry): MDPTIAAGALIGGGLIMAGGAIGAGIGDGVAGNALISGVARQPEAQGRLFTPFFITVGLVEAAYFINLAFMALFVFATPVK

In the case of `COc1nc2ccc(N)cc2cc1[C@@H](c1ccccc1)[C@@](O)(CCN(C)C)c1cccc2ccccc12` [TMC207 amino-analog], the “dissociation constant of mono-exponential fit” value at ATP synthase subunit c was 0.002295; on ATP synthase holoenzyme, 0.000103.

For `COc1nc2ccc(Br)cc2cc1[C@@H](c1ccccc1)[C@@](O)(CCN(C)C)c1cccc2ccccc12` [TMC207], the “inhibition of ATP synthesis” value in test [1] is recorded as “no inhibition”.

For `CC(C)(C)c1cc(C=C(C#N)C#N)cc(C(C)(C)C)c1O` [SF6847], in test [2], the “residual ATP synthesis activity” value is below 10%.

The record behind these values is publication PMC3157398 (PLoS ONE, 2011).
